Article PMC11522800 (Frontiers in Immunology, 2024)
Read-outs that look alike come from different tables or passages of the source. Blank lines part the entries; values can stand above or below the compound they belong to.

Experiments:
[1] = Method: Cohort 1 received 50 mg of each dipeptide in 300 mL water. Cohort 2 received 100 mL Peptamen first, then 50 mg of each dipeptide in 150 mL water, followed by another 50 mL water. All drinks were taken within a minute. Cohort 3 received 100 mL Peptamen first, then a reduced dose of 5 mg of each dipeptide in 150 mL water, followed by another 50 mL water. All drinks were taken within a minute. Blood samples were collected after 15 min, 30 min, 45 min, 1 h, 2 h, 3 h, 4 h, 6 h, 8 h, 10 h, 14 h, 48 h and 72 h after dosing. Urine was collected and pooled at 0-4 h, 4-6 h, and 6-10 h, and was collected as spot urine at 48 h and 72 h after dosing.
Plasma samples were thawed on ice, mixed, and 100 µL of each sample was transferred to a 1.5 mL LoBind reaction tube. Plasma samples were precipitated after adding 200 µL of acetonitrile/methanol (10:1), and incubated on ice for 15 min. Samples were centrifuged at 16,000 g for 15 min at 4 °C. 100 µL supernatant was dried under nitrogen at 40 °C. Samples were reconstituted in 100 µL 0.1% formic acid and 5 µL was applied to the LC-MS/MS instrument.
Labelled XP dipeptides and single amino acids (P*, L*, F*) in plasma samples were quantified by LC-MS/MS using Nexera LC40 HPLC system (Shimadzu, Duisburg, Germany) coupled to an API 6500+ ™ tandem mass spectrometer (AB Sciex, Darmstadt, Germany). For chromatographic separation an ACQUITY UPLC HSS PFP Column (100 Å, 1.8 µm, 2.1 mm X 150 mm; Waters, Eschborn, Germany) protected by a SecurityGuard C18 column (4x2 mm; Phenomenex, Aschaffenburg, Germany) was used. Chromatographic separation was performed at an oven temperature of 40°C and the solvent flow rate was set to 400 µL/min. Elution was achieved by varying composition of solvent A (90% acetonitrile + methanol (6 + 1), 0.1% formic acid in H2O) and solvent B (0.1% formic acid in H2O) using following LC conditions: 0-1.4 min 0% solvent A; 1.4-10.4 min 0-50% solvent A; 10.5-12.9 min 80% solvent A; 13-15 min 0% solvent A. To decrease the introduction of debris into the MS, a valve was directed to waste at 0.1-1 min and 9.5-14.9 min.
MS detection of labelled amino acids and XP dipeptides was performed in positive mode with curtain gas set to 40, gas 1 of 50, gas 2 of 70, temperature of 500°C and an IS of 3500. Detection was achieved using MS parameters and mass transitions listed in Supplementary Table 3 .
LC-MS/MS-generated chromatograms were analyzed using Analyst 1.7.2 (Sciex, Darmstadt, Germany). The pharmacokinetics parameter AUC was calculated using GraphPad Prism version 8.0 (GraphPad Prism Software Inc., La Jolla, CA, USA). Partial AUCs were calculated manually using the trapezoidal rule.
Statistical analyses were performed using SPSS Statistics Version 28 (SPSS Inc., IBM, Chicago, IL, USA). To compare the effects between cohorts in the dipeptide resorption study the one-tailed Mann-Whitney-Test was applied. To compare the effects between enzyme supplementation and controls during the proof-of-concept study the one tailed Wilcoxon matched-pairs signed rank test was applied.

[2] = plasma of healthy volunteers after oral administration of SI-labelled XP dipeptides (with water or Peptamen); conditions: human (healthy volunteers), up to 72 h
[3] = test system: AMYNOPEP (dipeptidyl peptidase and aminopeptidase, 1:10 enzyme ratio); assay: Tris buffer at pH 7.0 using an enzyme mixture consisting of 0.86 mg/L dipeptidyl peptidase and 8.6 mg/L aminopeptidase; conditions: 37°C, up to 60 minutes
[4] = test system: AMYNOPEP (dipeptidyl peptidase : aminopeptidase, 1:1 ratio); assay: in vitro with AMYNOPEP at an enzyme ratio of 1:1
[5] = test system: gastric, pancreatic, and intestinal peptidases; assay: human gastric, pancreatic, and intestinal peptidases; conditions: cited from earlier work

reduction in plasma AUC of labelled amino acid on dose reduction from 50 mg to 5 mg of each XP ([1]; oral XP dipeptides taken with 100 mL Peptamen, n=3 healthy volunteers per cohort, LC-MS/MS): 9.5 fold
SI-labelled amino acid detection in plasma after oral XP dipeptides ([1]; oral, 50 mg each of F*P*, LP*, L*P* in water, n=3 healthy volunteers, HPLC-MS/MS): detectable
decrease in plasma AUC of labelled amino acid with Peptamen relative to water ([1]; oral, 50 mg of each XP dipeptide with 100 mL Peptamen vs water, n=3 healthy volunteers per cohort, LC-MS/MS): 2.1 fold
Compound: N[C@@H](Cc1ccccc1)C(=O)O [F*, phenylalanine]

reduction in plasma AUC of labelled amino acid on dose reduction from 50 mg to 5 mg of each XP ([1]; human, in vivo, po): 13.2 fold
Compound: CC(C)C[C@H](N)C(=O)O [L*, leucine]

reduction in plasma AUC of labelled amino acid on dose reduction from 50 mg to 5 mg of each XP ([1]; human, in vivo, po): 11.5 fold
Compound: O=C(O)[C@@H]1CCCN1 [P*, proline]

cleaved bond [2]: F*-P*
Compound: F*P*

cleaved bond [2]: L*-P*
Compound: L*P*

cleaved bond [4]: P-F
Compound: LQLQPFPQPQLPYPQPQLPYPQPQLPYPQPQPF
cleaved bond [3]: L-Q, 5 min and P-Q and Q-L and P-Y and P-F, within 30 minutes and Q-L, 5 min and P-F, 5 min and P-Q, 5 min
not cleaved [5]: thought to be stable to proteolytic digestion
